We go through two molecules from patent US9474734B2, “Compounds for treating inflammation and pain” (Olatec Industries LLC, priority 2012, dated 2016).

The subject of the assay is arachidonic acid-induced ear swelling. Description: topical arachidonic acid-induced ear swelling model in mice. The class given is in vivo. Conditions: male ICR mice; topical application 30 min before and 15 min after arachidonic acid; measured at 90 minutes; indomethacin 14 mM (0.1 mg/20 μL), 3-(methylthio)propionitrile 375 mM (1.0 mg/20 μL). How it is done: The test compounds, indomethacin (positive control), and vehicle were evaluated for anti-inflammatory activity in a topical arachidonic acid-induced ear swelling model in mice. Male ICR mice weighing 22±2 g were used and randomly divided; each group had 10 mice. Arachidonic Acid (0.5 mg in 20 μl of acetone:ethanol/1:1) was applied topically to the anterior and posterior surfaces of the right ear of each mice. Test substances and vehicle, as listed in Table 1 were similarly applied 30 min before and 15 min after arachidonic acid application. The thickness of the right ear and the left ear was measured and the difference calculated as an indication of the inflammation in the right ear. Ear swelling was measured by a Dyer model micrometer gauge at 60 and 90 minutes after arachidonic acid application as an index of inflammation. Percent inhibition was calculated according to the formula: Ic−It/Ic×100, where Ic and It refers to increase of ear thickness (mm) in control and treated mice, respectively. ANOVA and Dunnett's test were employed to ascertain significant difference between vehicle control and treated groups. Significance is set at P<0.05 level.

On to `COc1ccc2c(c1)c(CC(=O)O)c(C)n2C(=O)c1ccc(Cl)cc1` [Indomethacin], for which the “% Inhibition of ear swelling” value was 53%. The same measure for `CSCCC#N` [3-(methylthio)propionitrile]: 43%.
